According to ChEMBL document CHEMBL2439949, “Synthesis and structure-activity relationships of phenyl-substituted coumarins with anti-tubercular activity that target FadD32” (Bioorg Med Chem Lett, 2013):
Values after ≈ are worked out from the molar mass of the structure shown. Active and inactive are the calls of the source. The calls are words filed in the database; no cut-off is given here.

Experiments:
[1] = tested on: Mycobacterium tuberculosis; experiment: Antimycobacterial activity against Mycobacterium tuberculosis H37Rv after 7 days; assay type: functional; conditions: 168 h
HepG2 = experiment: Cytotoxicity against human HepG2 cells at 125 uM after 48 hrs; assay type: cell-based; conditions: hepg2, 48 h
[2] = tested on: Mycobacterium tuberculosis; experiment: Antimycobacterial activity against Mycobacterium tuberculosis H37Rv at 64 uM after 7 days; assay type: functional, organism-based
[3] = tested on: Mycobacterium tuberculosis; experiment: Antimycobacterial activity against Mycobacterium tuberculosis H37Rv at 250 uM after 7 days; assay type: functional
Mus musculus [4] = experiment: Initial plasma concentration in Balb/c mouse at 10 mg/kg, po; assay type: ADME, organism-based; set-up: dose 10 mg/kg, route oral; conditions: in vivo
[5] = AUClast in Balb/c mouse at 1 mg/kg, iv; assay type: ADME, organism-based; set-up: time 0 - last, dose 1 mg/kg, route intravenous; conditions: plasma
[6] = AUClast in Balb/c mouse at 10 mg/kg, po; assay type: ADME, organism-based; set-up: time 0 - last, dose 10 mg/kg, route oral; conditions: plasma
[7] = Half life in Balb/c mouse liver microsomes at 100 uM; assay type: ADME, Microsome
[8] = MRTlast in Balb/c mouse at 10 mg/kg, po; assay type: ADME, organism-based; set-up: dose 10 mg/kg, route oral; conditions: in vivo
[9] = AUC (0 to infinity) in Balb/c mouse at 1 mg/kg, iv; assay type: ADME, organism-based; set-up: time infinity, dose 1 mg/kg, route intravenous; conditions: plasma
[10] = Clearance in Balb/c mouse at 10 mg/kg, po; assay type: ADME, organism-based; set-up: dose 10 mg/kg, route oral; conditions: in vivo
[11] = Tmax in Balb/c mouse at 10 mg/kg, po; assay type: ADME, organism-based; set-up: dose 10 mg/kg, route oral; conditions: in vivo
[12] = Intrinsic clearance in Balb/c mouse liver microsomes at 100 uM; assay type: ADME, Microsome; conditions: read-out: CLH
[13] = Permeability of the compound from apical to basolateral side of human Caco2 cells at 10 uM; assay type: ADME, cell-based; conditions: Caco-2, read-out: permeability
[14] = Half life in Balb/c mouse at 10 mg/kg, po; assay type: ADME, organism-based; set-up: dose 10 mg/kg, route oral; conditions: in vivo
Mus musculus [15] = experiment: Volume of distribution in Balb/c mouse at 10 mg/kg, po; assay type: ADME, organism-based; set-up: dose 10 mg/kg, route oral; conditions: in vivo
[16] = AUC (0 to infinity) in Balb/c mouse at 10 mg/kg, po; assay type: ADME, organism-based; set-up: time infinity, dose 10 mg/kg, route oral; conditions: plasma
[17] = Volume of distribution in Balb/c mouse at 1 mg/kg, iv; assay type: ADME, organism-based; set-up: dose 1 mg/kg, route intravenous; conditions: in vivo
[18] = Oral bioavailability in Balb/c mouse at 10 mg/kg; assay type: ADME, organism-based; conditions: in vivo
[19] = Initial plasma concentration in Balb/c mouse at 1 mg/kg, iv; assay type: ADME, organism-based; set-up: dose 1 mg/kg, route intravenous
[20] = Half life in Balb/c mouse at 1 mg/kg, iv; assay type: ADME, organism-based; set-up: dose 1 mg/kg, route intravenous; conditions: in vivo
[21] = Clearance in Balb/c mouse at 1 mg/kg, iv; assay type: ADME, organism-based; set-up: dose 1 mg/kg, route intravenous; conditions: in vivo
[22] = Permeability of the compound from basolateral to apical side of human Caco2 cells at 10 uM; assay type: ADME, cell-based; conditions: Caco-2, read-out: permeability
[23] = Metabolic stability of the compound in Balb/c mouse plasma assessed as compound remaining at 1 uM after 8 hrs; assay type: ADME, cell-free; conditions: read-out: Stability
[24] = MRTlast in Balb/c mouse at 1 mg/kg, iv; assay type: ADME, organism-based; set-up: dose 1 mg/kg, route intravenous; conditions: in vivo
[25] = Tmax in Balb/c mouse at 1 mg/kg, iv; assay type: ADME, organism-based; set-up: dose 1 mg/kg, route intravenous; conditions: in vivo
[26] = Metabolic stability of the compound in human plasma assessed as compound remaining at 1 uM after 5 hrs; assay type: ADME, cell-free; conditions: read-out: Stability
[27] = Plasma protein binding in human at 1 uM after 5 hrs; assay type: ADME, cell-free; conditions: read-out: PPB (converted)
[28] = Solubility in water; assay type: physicochemical
[29] = Cytotoxicity against human HepG2 cells after 48 hrs; assay type: cell-based; conditions: read-out: LD50
[30] = tested on: Mycobacterium tuberculosis; experiment: Antimycobacterial activity against Mycobacterium tuberculosis H37Rv at 62 uM after 7 days; assay type: functional, organism-based

For `COc1cccc(-c2c(C)cc3oc(=O)cc(-c4ccccc4)c3c2C)c1`, the IC90 [1] was 31 µM.
Compound `CCCCCCNCc1ccc(-c2c(C)cc3oc(=O)cc(-c4ccccc4)c3c2C)cc1` has an IC90 [1] of 4 µM.
Work on `Cc1cc2oc(=O)cc(-c3cccc(NS(C)(=O)=O)c3)c2c(C)c1-c1ccc(CN2CCOCC2)cc1` yielded an IC90 [1] of 59 µM.
Work on `Cc1cc2oc(=O)cc(-c3ccccc3)c2c(C)c1-c1ccc(F)cc1` yielded an IC90 [1] of 26 µM.
`Cc1cc2oc(=O)cc(-c3ccccc3)c2c(C)c1-c1cccc(F)c1` gave an IC90 [1] of 21 µM.
For `Cc1ccc(-c2c(C)cc3oc(=O)cc(-c4ccccc4)c3c2C)cc1`, the IC90 [1] was 36 µM.
In the case of `Cc1cc2oc(=O)cc(-c3ccccc3)c2c(C)c1-c1ccc(CN2CCN(C)CC2)cc1`, the IC90 [1] is reported as 5.89 µM and the Activity (HepG2) is reported as “Non-toxic”.
With `Cc1cc2oc(=O)cc(-c3ccccc3)c2c(C)c1-c1ccccc1Cl` the IC90 [1] was 22 µM and the Activity (HepG2) was “Non-toxic”.
With `O=c1cc(-c2ccccc2)c2cc(-c3ccc(CO)cc3)ccc2o1` the IC90 [1] was 115 µM.
With `Cc1cc2oc(=O)cc(-c3ccccc3)c2c(C)c1-c1cccc(C(F)(F)F)c1` the Activity [2] was “inactive”.
For `Cc1cc(-c2c(C)cc3oc(=O)cc(-c4ccccc4)c3c2C)ccn1`, the IC90 [1] was 36 µM.
With `Cc1ccc(-c2c(C)cc3oc(=O)cc(C)c3c2C)cc1` the inhibition [3] was “inactive”.
With `Cc1cc2oc(=O)cc(-c3ccccc3)c2c(C)c1-c1ccc(C#N)cc1` the IC90 [1] was 295 µM.
Work on `CCOC(=O)Nc1cccc(-c2cc(=O)oc3cc(C)c(-c4ccc(CN5CCOCC5)cc4)c(C)c23)c1` yielded an IC90 [1] of 39 µM.
Compound `COC(=O)c1cccc(-c2cc(=O)oc3cc(C)c(-c4ccc(CN5CCOCC5)cc4)c(C)c23)c1` has an IC90 [1] of 59 µM.
For `Cc1cc2oc(=O)cc(-c3cccc(N)c3)c2c(C)c1-c1ccc(CN2CCOCC2)cc1.Cl.Cl`, the C0 (Mus musculus [4]) was 0.64206 µg/mL, the AUC(0-t) [5] was 0.513 µg·h/mL and the AUC(0-t) [6] was 3.18 µg·h/mL. The half-life at 100 µM [7] was 8.63 h, the MRT last [8] was 4.31 h and the AUC(0-inf) [9] was 0.536 µg·h/mL. For the same compound, the CL/F [10] was 3.14 L/h/kg, the Tmax [11] was 2 h and the CLint scaled at 100 µM [12] was 4.82 L/h/kg. For the same compound, the Papp A→B at 10 µM [13] was 345 nm/s, the half-life [14] was 2.71 h and the Vd (Mus musculus [15]) was 12.25 L/kg. It also gave an AUC(0-inf) [16] of 3.19 µg·h/mL, a Vd [17] of 3.91 L/kg and a bioavailability [18] of 62%. For the same compound, the C0 [19] was 0.851 µg/mL, the half-life [20] was 1.45 h and the clearance [21] was 1.86 L/h/kg. For the same compound, the Papp B→A at 10 µM [22] was 769 nm/s, the remaining at 8 h, 1 µM [23] was 112% and the MRT last [24] was 1.36 h. The Tmax [25] was 4.98 min.
For `CNC(=O)c1ccc(-c2c(C)cc3oc(=O)cc(-c4ccccc4)c3c2C)cc1`, the IC90 [1] was 7 µM and the Activity (HepG2) was “Non-toxic”.
With `Cc1cc2oc(=O)cc(-c3ccccc3)c2c(C)c1-c1ccc(CO)cc1` the remaining at 5 h, 1 µM [26] was 80.3%, the fraction unbound at 5 h, 1 µM [27] was 0.006 and the IC90 [1] was 7 µM. For the same compound, the Activity (HepG2) was “Non-toxic” and the solubility [28] was 0.2 µM (≈ 0.0713 µg/mL).
In the case of `Cc1cc2oc(=O)cc(-c3ccccc3)c2c(C)c1-c1ccc(CNC2CCCCC2)cc1`, the IC90 [1] is reported as 5 µM, the Activity (HepG2) is reported as “Non-toxic” and the CC50 at 48 h [29] is reported as 32 µM.
For `COc1ccc(C2=CC(=O)Cc3cc(C)c(-c4ccc(CN5CCOCC5)cc4)c(C)c32)cc1`, the Activity [30] was “inactive”.
`Cc1cc2oc(=O)cc(-c3ccccc3)c2c(C)c1-c1cncnc1` gave an IC90 [1] of 8 µM.
Work on `C=Cc1ccc(-c2c(C)cc3oc(=O)cc(-c4ccccc4)c3c2C)cc1` yielded an IC90 [1] of 184 µM.
Work on `Cc1cc2oc(=O)cc(-c3ccccc3)c2c(C)c1-c1ccc(Cl)cc1` yielded an IC90 [1] of 54 µM.
For `Cc1cc2oc(=O)cc(-c3cccc([N+](=O)[O-])c3)c2c(C)c1-c1ccc(CN2CCOCC2)cc1`, the IC90 [1] was 6 µM and the Activity (HepG2) was “Non-toxic”.
In the case of `Cc1cc2oc(=O)cc(-c3ccccc3)c2c(C)c1Br`, the Activity [2] is reported as “inactive”.
`Cc1cc2oc(=O)cc(-c3ccccc3)c2c(C)c1-c1ccc(C(F)(F)F)cc1` showed an IC90 [1] of 29 µM.
In the case of `Cc1cc2oc(=O)cc(-c3ccccc3)c2c(C)c1-c1ccc(CN2CCCCC2)cc1`, the IC90 [1] is reported as 19 µM and the Activity (HepG2) is reported as “Non-toxic”.
`Cc1cc2oc(=O)cc(-c3cccc(N)c3)c2c(C)c1-c1ccc(CN2CCOCC2)cc1` showed a remaining at 5 h, 1 µM [26] of 88%, a fraction unbound at 5 h, 1 µM [27] of 0.013 and an IC90 [1] of 0.4 µM. For the same compound, the solubility [28] was 89.3 µM (≈ 39.3 µg/mL).
Work on `Cc1cc(C)c2c(-c3ccccc3)cc(=O)oc2c1` yielded an IC90 [1] of 1100 µM.
In the case of `CC(=O)Nc1cccc(-c2cc(=O)oc3cc(C)c(-c4ccc(CN5CCOCC5)cc4)c(C)c23)c1`, the IC90 [1] is reported as 12 µM and the Activity (HepG2) is reported as “Non-toxic”.
Compound `Cc1ccc(/C=C/c2c(C)cc3oc(=O)cc(-c4ccccc4)c3c2C)cc1` has an IC90 [1] of 61 µM.
`Cc1cc2oc(=O)cc(-c3ccccc3)c2c(C)c1-c1ccc(CN2CCOCC2)cc1` showed a remaining at 5 h, 1 µM [26] of 84.4%, a fraction unbound at 5 h, 1 µM [27] of 0.014 and an IC90 [1] of 0.5 µM. For the same compound, the Activity (HepG2) was “Non-toxic” and the solubility [28] was 36.1 µM (≈ 15.4 µg/mL).
Work on `Cc1cc2oc(=O)cc(-c3ccc(N)cc3)c2c(C)c1-c1ccc(CN2CCOCC2)cc1` yielded an IC90 [1] of 14 µM.
In the case of `Cc1cc2oc(=O)cc(-c3ccccc3)c2c(C)c1-c1cccnc1`, the IC90 [1] is reported as 69 µM.
In the case of `Cc1cc(CO)ccc1-c1c(C)cc2oc(=O)cc(-c3ccccc3)c2c1C`, the IC90 [1] is reported as 22 µM and the Activity (HepG2) is reported as “Non-toxic”.
For `COc1ccccc1-c1c(C)cc2oc(=O)cc(-c3ccccc3)c2c1C`, the Activity [2] was “inactive”.
In the case of `Cc1cc2oc(=O)cc(-c3cccnc3)c2c(C)c1-c1ccc(CN2CCOCC2)cc1`, the IC90 [1] is reported as 1 µM and the Activity (HepG2) is reported as “Non-toxic”.
For `Cc1cc2oc(=O)cc(-c3ccccc3)c2cc1-c1ccc(CO)cc1`, the IC90 [1] was 68 µM.
In the case of `Cc1ccc(-c2ccc3oc(=O)cc(-c4ccccc4)c3c2)cc1`, the inhibition at 250 µM ([3]; 168 h) is reported as 24%.
In the case of `Cc1cc2oc(=O)cc(-c3ccccc3)c2c(C)c1-c1ccc(C(C)O)cc1` (stereo not drawn), the IC90 [1] is reported as 4 µM and the Activity (HepG2) is reported as “Non-toxic”.
`CC(=O)c1ccc(-c2c(C)cc3oc(=O)cc(-c4ccccc4)c3c2C)cc1` gave an IC90 [1] of 220 µM.
In the case of `Cc1cc(-c2ccc3oc(=O)cc(-c4ccccc4)c3c2)c(C)cc1CO`, the IC90 [1] is reported as 170 µM.
`Cc1c(-c2ccc(CO)cc2)ccc2oc(=O)cc(-c3ccccc3)c12` gave an IC90 [1] of 70 µM.
Compound `Cc1cc2oc(=O)cc(-c3ccccc3)c2c(C)c1-c1cccc(Cl)c1` has an IC90 [1] of 260 µM.
With `Cc1cc2oc(=O)cc(-c3ccccc3)c2c(C)c1-c1ccc(C)c2ccccc12` the Activity [2] was “inactive”.
For `Cc1cc2oc(=O)cc(-c3ccccc3)c2c(C)c1-c1ccncc1`, the remaining at 5 h, 1 µM [26] was 83.5%, the fraction unbound at 5 h, 1 µM [27] was 0.012 and the IC90 [1] was 2 µM. The Activity (HepG2) was “Non-toxic” and the solubility [28] was 3.2 µM (≈ 1.05 µg/mL).
